Series [1] in a line: Brain penetration in rats, 24 h IV infusion, brain to plasma ratios. Type of series: in vivo, Sprague-Dawley rats. The source says: To understand the brain penetration, brain to plasma ratios of the compounds were obtained in Sprague-Dawley (SD) rats. In vivo equilibrium distribution between blood and brain in preclinical species such as rats is a commonly used parameter to evaluate brain penetration. Kp,brain is the ratio of concentrations in brain and blood (Cbrain/Cplasma). The compound's passive diffusion characteristics, its affinity for membrane transporters at the blood-brain barrier (BBB), and the relative drug binding affinity differences between the plasma proteins and brain tissue influence the Kp,brain.
The animals received IV infusion of 1 mg/kg/hr of the compound over 24 hours via jugular vein cannulation. At 24 hours, blood was collected via tail vein bleeding or cardiac puncture (under anesthesia) and centrifuged to obtain plasma samples. Brain tissues were collected and homogenized with phosphate-buffered saline (PBS). The concentrations of the compounds were obtained in the plasma and brain homogenates by LC-MS/MS analysis.

For another series, the target named is PDGFRα D842V (Homo sapiens (Human), UniProt P16234, D842V). As to the kind of experiment: PDGFRα D842V biochemical enzymatic activity assay (EZReader 2 mobility shift). Conditions: ATP at APPKM (25 μM), 90 minutes. From the text:
PDGFRα and KIT enzymatic activity was monitored using the Perkin Elmer electrophoretic mobility shift technology platform, the EZReader 2.
Within the linear, steady-state phase of the kinase enzymatic reaction, the mixed pool of phosphorylated (product) and non-phosphorylated (substrate) peptides was passed through the microfluidic system of the PerkinElmer EZ Reader 2, under an applied electric potential difference. The presence of the phosphate group on the product peptide provided a difference in mass and charge between that of the substrate peptide, resulting in a separation of the substrate and product pools in the sample (Perrin et al., Expert Opin Drug Discovery 2010, January 5(1):51-63).
As the product and substrate peptide mixture passes the lasers within the instrument, these pools are detected (λex=488 nm, λem=568 nm) and resolved as separate peaks. The ratio between these peaks reflects the activity of the compound at that concentration, in that well, under those conditions.
Inhibition of KIT (D816V) PDGFRα (D842V) Mutant Biochemical Enzymatic Activity
All test articles were dissolved in 100% DMSO at a stock concentration of 10 mM. A 100×, 10-point, 4-fold serial dilution of all test compounds was created in 100% DMSO, starting at a relevant concentration, usually 1 mM. A volume of 0.130 μL of each concentration was transferred to the relevant well of a 384-well assay plate (Greiner 781 201) using a TTPLabtech Mosquito nano-liter dispenser. Using the Multidrop, the remaining constituents of the reaction were then added to the 0.130 μL of compound as follows:
The reaction was stopped by the addition of 70 μl of Stop buffer (100 mM HEPES pH 7.5, 0.015% Brij 35, 35 mM EDTA and 0.2% of Coating Reagent 3, Caliper Lifesciences). The plate was read on a Caliper EZReader 2.

The term IC50 denotes the concentration needed to halve the response being measured.

Chain of PDGFRα D842V (P16234 24-1089 D842V): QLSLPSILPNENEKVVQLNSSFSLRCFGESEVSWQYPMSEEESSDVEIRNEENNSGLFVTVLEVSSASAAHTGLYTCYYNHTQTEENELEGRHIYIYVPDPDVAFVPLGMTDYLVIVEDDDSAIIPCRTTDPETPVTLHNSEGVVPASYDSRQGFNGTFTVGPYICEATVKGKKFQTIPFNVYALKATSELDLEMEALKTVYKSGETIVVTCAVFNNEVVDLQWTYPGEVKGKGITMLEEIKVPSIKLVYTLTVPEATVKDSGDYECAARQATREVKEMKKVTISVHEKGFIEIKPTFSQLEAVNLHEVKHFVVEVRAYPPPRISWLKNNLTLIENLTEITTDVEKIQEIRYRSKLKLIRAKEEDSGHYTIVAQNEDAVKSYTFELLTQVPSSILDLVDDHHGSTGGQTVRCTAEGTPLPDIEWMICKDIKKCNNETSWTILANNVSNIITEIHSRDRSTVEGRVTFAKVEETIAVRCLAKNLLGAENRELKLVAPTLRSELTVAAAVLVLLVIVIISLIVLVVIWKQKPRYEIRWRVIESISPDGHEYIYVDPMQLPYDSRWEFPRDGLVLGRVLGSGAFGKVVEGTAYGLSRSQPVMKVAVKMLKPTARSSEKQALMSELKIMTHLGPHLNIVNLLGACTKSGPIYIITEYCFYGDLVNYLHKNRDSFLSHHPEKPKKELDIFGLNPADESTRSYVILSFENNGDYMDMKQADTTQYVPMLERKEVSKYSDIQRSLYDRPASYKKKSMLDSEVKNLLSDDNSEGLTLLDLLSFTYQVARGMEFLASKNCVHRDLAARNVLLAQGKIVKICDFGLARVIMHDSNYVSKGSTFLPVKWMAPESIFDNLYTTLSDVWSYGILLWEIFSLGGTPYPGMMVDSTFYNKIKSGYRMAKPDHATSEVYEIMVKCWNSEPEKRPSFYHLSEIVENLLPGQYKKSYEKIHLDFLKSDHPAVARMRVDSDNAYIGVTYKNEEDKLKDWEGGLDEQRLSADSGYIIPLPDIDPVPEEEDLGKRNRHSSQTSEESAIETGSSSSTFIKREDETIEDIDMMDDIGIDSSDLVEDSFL

Regarding `CCn1cc(-c2cc3c(N4CCN(c5ncc([C@@](C)(N)c6ccc(F)cc6)cn5)CC4)ncnn3c2)cn1` [Compound 63, reference compound], the “Kp, brain” value in series [1] (Mean of 3 rats, IV infusion 1 mg/kg/hr over 24 hours) came out at 1.75.

For `C[C@H](CO)n1cc(-c2cc3c(N4CCN(c5ncc([C@@](C)(N)c6ccc(F)cc6)cn5)CC4)ncnn3c2)cn1` [Compound 5, (R)-2-(4-(4-(4-(5-((S)-1-Amino-1-(4-fluorophenyl)ethyl)pyrimidin-2-yl)piperazin-1-yl)pyrrolo[2,1-f][1,2,4]triazin-6-yl)-1H-pyrazol-1-yl)propan-1-ol], the 50% inhibitory concentration (IC50) on PDGFRα D842V is below 0.3 nM.

Take `C[C@](N)(c1ccc(F)cc1)c1cnc(N2CCN(c3ncnn4cc(-c5cnn(CCO)c5)cc34)CC2)nc1` [Compound 4, (S)-2-(4-(4-(4-(5-(1-Amino-1-(4-fluorophenyl)ethyl)pyrimidin-2-yl)piperazin-1-yl)pyrrolo[2,1-f][1,2,4]triazin-6-yl)-1H-pyrazol-1-yl)ethanol]: on PDGFRα D842V, the IC50 was below 0.3 nM.

With `C[C@](N)(c1ccc(F)cc1)c1cnc(N2CCN(c3ncnn4cc(-c5cnn([C@H]6C[C@@H](O)C6)c5)cc34)CC2)nc1` [Compound 10, cis-3-(4-(4-(4-(5-((S)-1-Amino-1-(4-fluorophenyl)ethyl)pyrimidin-2-yl)piperazin-1-yl)pyrrolo[2,1-f][1,2,4]triazin-6-yl)-1H-pyrazol-1-yl)cyclobutanol], the “Rat Kp” value in series [1] (rat, methods of Example 4) is reported as below 0.39.

Consider `C[C@@H](CO)n1cc(-c2cc3c(N4CCN(c5ncc([C@@](C)(N)c6ccc(F)cc6)cn5)CC4)ncnn3c2)cn1` [Compound 6, (S)-2-(4-(4-(4-(5-((S)-1-amino-1-(4-fluorophenyl)ethyl)pyrimidin-2-yl)piperazin-1-yl)pyrrolo[2,1-f][1,2,4]triazin-6-yl)-1H-pyrazol-1-yl)propan-1-ol], for which the IC50 on PDGFRα D842V was below 0.3 nM.

As for `CC(C)(O)Cn1cc(-c2cc3c(N4CCN(c5ncc([C@@](C)(N)c6ccc(F)cc6)cn5)CC4)ncnn3c2)cn1` [Compound 1, (S)-1-(4-(4-(4-(5-(1-Amino-1-(4-fluorophenyl)ethyl)pyrimidin-2-yl)piperazin-1-yl)pyrrolo[2,1-f][1,2,4]triazin-6-yl)-1H-pyrazol-1-yl)-2-methylpropan-2-ol], on PDGFRα D842V, the IC50 was below 0.3 nM.

In the case of `CC(C)(CO)n1cc(-c2cc3c(N4CCN(c5ncc([C@@](C)(N)c6ccc(F)cc6)cn5)CC4)ncnn3c2)cn1` [Compound 2, (S)-2-(4-(4-(4-(5-(1-amino-1-(4-fluorophenyl)ethyl)pyrimidin-2-yl)piperazin-1-yl)pyrrolo[2,1-f][1,2,4]triazin-6-yl)-1H-pyrazol-1-yl)-2-methylpropan-1-ol], the IC50 on PDGFRα D842V is below 0.3 nM.

For the compound `C[C@@H](O)Cn1cc(-c2cc3c(N4CCN(c5ncc([C@@](C)(N)c6ccc(F)cc6)cn5)CC4)ncnn3c2)cn1` [Compound 3, (R)1-{4-[4-(4-{5-[(S)-1-Amino-1-(4-fluoro-phenyl)-ethyl]-pyrimidin-2-yl}-piperazin-1-yl)-pyrrolo[2,1-f][1,2,4]triazin-6-yl]-pyrazol-1-yl}-propan-2-ol], the IC50 at PDGFRα D842V is below 0.3 nM.

For the origin of these results see patent US12552795B2, “Pyrrolotriazine derivatives for treating kit-and PDGFRA-mediated diseases” (Blueprint Medicines Corporation, priority 2019, dated 2026).
